From patent publication EP1888615B1, “17 -HSD1 AND STS INHIBITORS” (Abbott Products GmbH, priority 2005, dated 2006)

Target: T1, recombinant human 17β-hydroxysteroid dehydrogenase type 1 (Homo sapiens, UniProt P14061)
T1 construct: made in house; host or cells: Sf9 insect cells (baculovirus, Bac to Bac Expression System)
T1 sequence (P14061 1-328): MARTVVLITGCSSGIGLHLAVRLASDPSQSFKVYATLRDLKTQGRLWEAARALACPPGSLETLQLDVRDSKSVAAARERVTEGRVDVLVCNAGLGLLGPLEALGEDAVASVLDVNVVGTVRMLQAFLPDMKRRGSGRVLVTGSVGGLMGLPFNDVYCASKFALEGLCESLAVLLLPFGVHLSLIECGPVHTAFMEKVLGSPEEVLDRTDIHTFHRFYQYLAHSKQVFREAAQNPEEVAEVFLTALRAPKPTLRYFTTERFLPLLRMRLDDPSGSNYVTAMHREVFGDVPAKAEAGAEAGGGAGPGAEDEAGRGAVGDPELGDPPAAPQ
Experiment: Inhibition of recombinant human 17β-hydroxysteroid dehydrogenase type 1 (conversion of 3H-estrone to estradiol, HPLC radiodetection)
Assay type: biochemical
Settings: inhibitor 100 nM; 30 nM 3H-estrone, 1 mM NADPH, 30 min at RT
Procedure: 17β-HSD1 purification: Recombinant baculovirus was generated by the "Bac to Bac Expression System" (Invitrogen). Recombinant bacmid was transfected to Sf9 insect cells using "Cellfectin Reagent" (Invitrogen). 60h later cells were harvested; the microsomal fraction was isolated as described by Puranen et al. (1994). Aliquots were stored frozen until determination of enzymatic activity.
Assay - Inhibition of recombinant human 17β-hydroxysteroid dehydrogenase type 1: Recombinant protein (0.1µg/ml) was incubated in 20 mM KH2PO4 pH 7.4 with 30 nM 3H-estrone and 1 mM NADPH for 30 min at RT, in the presence of potential inhibitors at concentrations of 1 µM or 0.1 µM. Inhibitor stock solutions were prepared in DMSO. Final concentration of DMSO was adjusted to 1 % in all samples. The enzyme reaction was stopped by addition of 10 % trichloroacetic acid (final concentration). Samples were centrifuged in a microtiter plate at 4000 rpm for 10 min. Supernatants were applied to reverse phase HPLC on a Waters Symmetry C18 column, equipped with a Waters Sentry Guard column. Isocratic HPLC runs were performed at RT at a flow rate of 1 ml/min of acetonitrile:water 48:52 as running solvent. Radioactivity was monitored in the eluate by a Packard Flow Scintillation Analyzer. Total radioactivity for estrone and estradiol were determined in each sample and percent conversion of estrone to estradiol was calculated according to the following formula: % conversion = 100 × ({(cpm estradiol in sample with inhibitor)/[(cpm estrone in sample with inhibitor)+(cpm estradiol in sample with inhibitor)]})/({(cpm estradiol in sample without inhibitor)/[(cpm estrone in sample without inhibitor)+(cpm estradiol in sample without inhibitor)]}). [formula] [formula]
Table 19: Inhibition of 17β-HSD enzyme type I

| Inhibition of rec 17β-HSD1 | Compound |
| --- | --- |
| 40.6% | COc1cc2c(cc1O)CCC1C2CCC2(C)C(=O)CC(CCCC(=O)N3CCCCC3)C12 (stereo not drawn) [Example 78] |

Same assay, conditions: inhibitor 1 µm; 30 nM 3H-estrone, 1 mM NADPH, 30 min at RT; read-out: Inhibition of rec 17β-HSD1

| Compound | inhibition |
| --- | --- |
| C[C@]12CC[C@@H]3c4ccc(O)cc4CC[C@H]3[C@@H]1[C@@H](CCCC(=O)N1CCCCC1)CC2(F)F [Example 113] | 76.9% |
| C[C@]12CC[C@@H]3c4ccc(O)cc4CC[C@H]3[C@@H]1[C@@H](CCCC(=O)N1CCOCC1)CC2(F)F [Example 91, 4-(17,17-Difluoro-3-hydroxy-estra-1,3,5(10)-trien-15a-yl)-1-morpholin-4-yl-butan-1-one] | 85% |
| COCCc1cc2c(cc1O)CC[C@H]1[C@@H]3[C@H](CCCC(=O)NCc4ccccc4)CC(=O)[C@@]3(C)CC[C@H]21 [Example 3, N-Benzyl-4-(3-hydroxy-2-(2-methoxy-ethyl)-17-oxo-estra-1,3,5(10)-trien-15β-yl)-butyramide] | 71.2% |
| COc1ccc(CCN(C)C(=O)CC[C@@H]2CC(F)(F)[C@@]3(C)CC[C@@H]4c5ccc(O)cc5CC[C@H]4[C@H]23)cc1OC [Example 134] | 88.6% |
| C[C@]12CC[C@@H]3c4ccc(O)cc4CC[C@H]3[C@@H]1[C@@H](CCCC(=O)NC1CCCCC1)CC2(F)F [Example 102] | 70.6% |
| CCOc1cc2c(cc1O)CC[C@H]1[C@@H]3[C@@H](CCCC(=O)N4CCCCC4)CC(=O)[C@@]3(C)CC[C@H]21 [Example 55] | 71.9% |
| CCN(CC)C(=O)CC[C@@H]1CC(F)(F)[C@@]2(C)CC[C@@H]3c4ccc(O)cc4CC[C@H]3[C@H]12 [Example 133] | 90.6% |
| Cc1cnc(NC(=O)CC[C@@H]2CC(F)(F)[C@@]3(C)CC[C@@H]4c5ccc(O)cc5CC[C@H]4[C@H]23)s1 [Example 93, 3-(17,17-Difluoro-3-hydroxy-estra-1,3,5(10)-trien-15β-yl)-N-(5-methyl-thiazol-2-yl)-propionamide] | 86.7% |
| COc1cc2c(cc1O)CC[C@H]1[C@@H]3[C@@H](CCCC(=O)Nc4ccc5cn[nH]c5c4)CC(=O)[C@@]3(C)CC[C@H]21 [Example 83] | 71.6% |
| COc1cc2c(cc1O)CCC1C2CCC2(C)C(=O)CC(CCCC(=O)N3CCCCC3)C12 (stereo not drawn) [Example 78] | 72% |
| C[C@]12CC[C@@H]3c4ccc(O)cc4CC[C@H]3[C@@H]1[C@@H](CCCC(=O)NCc1ccc(O)c(O)c1)CC2(F)F [Example 109] | 70.7% |
| CCCc1cc2c(cc1O)CC[C@H]1[C@@H]3[C@H](CCCC(=O)N4CCOCC4)CC(=O)[C@@]3(C)CC[C@H]21 [Example 6, 3-Hydroxy-15β-(4-morpholin-4-yl-4-oxo-butyl)-2-propyl-estra-1,3,5(10)-trien-17-one] | 79.3% |
| C[C@]12CC[C@@H]3c4ccc(O)cc4CC[C@H]3[C@@H]1[C@H](CCC(=O)NCc1ccc3c(c1)OCO3)CC2(F)F [Example 122] | 77.9% |
| CCCc1cc2c(cc1O)CC[C@H]1[C@@H]3[C@H](CCCC(=O)NCCc4c[nH]c5c(C)cccc45)CC(=O)[C@@]3(C)CC[C@H]21 [Example 34] | 71.9% |
| CCCc1cc2c(cc1O)CC[C@H]1[C@@H]3[C@H](CCCC(=O)N4CCCCC4)CC(=O)[C@@]3(C)CC[C@H]21 [Example 36] | 78.1% |
| C[C@]12CC[C@@H]3c4ccc(O)cc4CC[C@H]3[C@@H]1[C@@H](CCCC(=O)NCc1ccccc1)CC2(F)F [Example 106] | 68% |
| CCOc1cc2c(cc1O)CC[C@H]1[C@@H]3[C@@H](CCCC(=O)NC4CCCCC4)CC(=O)[C@@]3(C)CC[C@H]21 [Example 44] | 75% |
| COc1cc2c(cc1O)CC[C@H]1[C@@H]3[C@@H](CCCC(=O)NCc4ccccc4)CC(=O)[C@@]3(C)CC[C@H]21 [Example 71] | 70.6% |
| CCCc1cc2c(cc1O)CC[C@H]1[C@@H]3[C@H](CCCC(=O)N(C)CCc4ccc(OC)c(OC)c4)CC(=O)[C@@]3(C)CC[C@H]21 [Example 38] | 76.7% |
| CCOc1cc2c(cc1O)CC[C@H]1[C@@H]3[C@@H](CCCC(=O)NCCc4c[nH]c5c(C)cccc45)CC(=O)[C@@]3(C)CC[C@H]21 [Example 52] | 72.2% |
| CCCc1cc2c(cc1O)CC[C@H]1[C@@H]3[C@H](CCCC(=O)NCc4ccccc4)CC(=O)[C@@]3(C)CC[C@H]21 [Example 2, N-Benzyl-4-(3-hydroxy-17-oxo-2-propyl-estra-1,3,5(10)-trien-15β-yl)-butyramide] | 74.8% |
| C[C@]12CC[C@@H]3c4ccc(O)cc4CC[C@H]3[C@@H]1[C@H](CCC(=O)NCc1ccccc1)CC2(F)F [Example 125] | 76.9% |
| C[C@]12CC[C@@H]3c4ccc(O)cc4CC[C@H]3[C@@H]1[C@H](CCCC(=O)N1CCOCC1)CC2(F)F [Example 90, 4-(17,17-Difluoro-3-hydroxy-estra-1,3,5(10)-trien-15β-yl)-1-morpholin-4-yl-butan-1-one] | 81.6% |

Second part, the molecule after the results:

| inhibition | Compound |
| --- | --- |
| 75.8% | CCCc1cc2c(cc1O)CC[C@H]1[C@@H]3[C@H](CCCC(=O)Nc4ccc5cn[nH]c5c4)CC(=O)[C@@]3(C)CC[C@H]21 [Example 40] |
| 92.5% | C[C@]12CC[C@@H]3c4ccc(O)cc4CC[C@H]3[C@@H]1[C@H](CCC(=O)NC1CCCCC1)CC2(F)F [Example 121] |
| 76.9% | Cc1cccc2c(CCNC(=O)CC[C@@H]3CC(F)(F)[C@@]4(C)CC[C@@H]5c6ccc(O)cc6CC[C@H]5[C@H]34)c[nH]c12 [Example 129] |
| 71.7% | CCCc1cc2c(cc1O)CC[C@H]1[C@@H]3[C@H](CCCC(=O)NCc4ccc(F)cc4F)CC(=O)[C@@]3(C)CC[C@H]21 [Example 42] |
| 73.6% | CCCc1cc2c(cc1O)CC[C@H]1[C@@H]3[C@H](CCCC(=O)NCc4ccc5c(c4)OCO5)CC(=O)[C@@]3(C)CC[C@H]21 [Example 30] |
| 75.7% | CCOc1cc2c(cc1O)CC[C@H]1[C@@H]3[C@@H](CCCC(=O)NCc4ccc5c(c4)OCO5)CC(=O)[C@@]3(C)CC[C@H]21 [Example 45] |
| 71.9% | C[C@]12CC[C@@H]3c4ccc(O)cc4CC[C@H]3[C@@H]1[C@H](CCC(=O)N1CCCCC1)CC2(F)F [Example 131] |
| 82.4% | COc1ccc(CCN(C)C(=O)CCC[C@H]2CC(F)(F)[C@@]3(C)CC[C@@H]4c5ccc(O)cc5CC[C@H]4[C@H]23)cc1OC [Example 116] |
| 69.7% | CCOc1cc2c(cc1O)CC[C@H]1[C@@H]3[C@@H](CCCC(=O)Nc4ccc5cn[nH]c5c4)CC(=O)[C@@]3(C)CC[C@H]21 [Example 59] |
| 81.3% | C[C@]12CC[C@@H]3c4ccc(O)cc4CC[C@H]3[C@@H]1[C@H](CCC(=O)NCc1ccc(O)c(O)c1)CC2(F)F [Example 127] |
| 68.3% | Cc1cccc2c(CCNC(=O)CCC[C@H]3CC(F)(F)[C@@]4(C)CC[C@@H]5c6ccc(O)cc6CC[C@H]5[C@H]34)c[nH]c12 [Example 111] |
| 74% | C[C@]12CC[C@@H]3c4ccc(OCc5ccccc5)cc4CC[C@H]3[C@@H]1[C@H](C/C=C/C(=O)N1CCOCC1)c1cnoc12 [161'] |
| 70.4% | CCCc1cc2c(cc1O)CC[C@H]1[C@@H]3[C@H](CCCC(=O)NCCOC)CC(=O)[C@@]3(C)CC[C@H]21 [Example 41] |
| 73.2% | COc1cc2c(cc1O)CC[C@H]1[C@@H]3[C@@H](CCCC(=O)NC4CCCCC4)CC(=O)[C@@]3(C)CC[C@H]21 [Example 67] |
| 71.7% | COc1cc(CNC(=O)CC[C@@H]2CC(F)(F)[C@@]3(C)CC[C@@H]4c5ccc(O)cc5CC[C@H]4[C@H]23)cc(OC)c1 [Example 128] |
| 85% | C[C@]12CC[C@@H]3c4ccc(O)cc4CC[C@H]3[C@@H]1[C@H](CCC(=O)NC1CC1)CC2(F)F [Example 120] |
| 79% | CCCc1cc2c(cc1O)CC[C@H]1[C@@H]3[C@H](CCCC(=O)NCc4cccnc4)CC(=O)[C@@]3(C)CC[C@H]21 [Example 32] |
| 74.7% | CCCc1cc2c(cc1O)CC[C@H]1[C@@H]3[C@H](CCCC(=O)N(C)Cc4ccccc4)CC(=O)[C@@]3(C)CC[C@H]21 [Example 37] |
